Legend:
[1] = system: LLC tumors; conditions: C57B1/6 mice, versus placebo; cited from earlier work
[2] = system: P815 tumor; conditions: pre-immunized immune-competent mice; cited from earlier work
[3] = target: T1, Human indoleamine 2,3-dioxygenasae (IDO) (Homo sapiens, UniProt P14902); assay: Human indoleamine 2,3-dioxygenase (IDO) enzyme assay; format: biochemical; conditions: 95 nM IDO, 2 mM D-Trp, pH 6.5, room temperature, absorbance at 321 nm
T1 construct: His tag (N); made in house; host or cells: E. coli
T1 sequence (P14902 whole entry): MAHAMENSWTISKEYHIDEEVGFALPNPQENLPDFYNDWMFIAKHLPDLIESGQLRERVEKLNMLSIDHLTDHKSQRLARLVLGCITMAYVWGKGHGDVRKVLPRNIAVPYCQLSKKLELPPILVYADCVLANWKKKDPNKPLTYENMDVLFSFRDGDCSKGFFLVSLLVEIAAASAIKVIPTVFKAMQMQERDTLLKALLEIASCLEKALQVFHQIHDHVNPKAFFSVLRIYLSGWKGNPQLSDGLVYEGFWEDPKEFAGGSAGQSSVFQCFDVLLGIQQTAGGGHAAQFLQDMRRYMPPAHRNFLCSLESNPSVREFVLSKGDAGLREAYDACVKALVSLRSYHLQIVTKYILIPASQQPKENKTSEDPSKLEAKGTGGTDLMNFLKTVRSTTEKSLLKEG
Experimental: Human indoleamine 2,3-dioxygenasae (IDO) with an N-terminal His tag was expressed in E. coli and purified to homogeneity. IDO catalyzes the oxidative cleavage of the pyrrole ring of the indole nucleus of tryptophan to yield N′-formylkynurenine. The assays were performed at room temperature as described in the literature using 95 nM IDO and 2 mM D-Trp in the presence of 20 mM ascorbate, 5 μM methylene blue and 0.2 mg/mL catalase in 50 mM potassium phosphate buffer (pH 6.5). The initial reaction rates were recorded by continuously following the absorbance increase at 321 nm due to the formation of N′-formlylkynurenine. […] The symbol “+” indicates IC50<[…]. The symbol “++” indicates […]. The symbol “+++” indicates IC50>[…].

SMILES	formation of tumors [1]	growth of tumors [2]	IC50 [3]
Cn1cc(C[C@H](N)C(=O)O)c2ccccc21 [Example 1-MT, 1-methyl-tryptophan]	markedly delayed	inhibited	–
N#Cc1cccc(NC(=NO)c2ccoc2)c1 [Example 11, N-(3-cyanophenyl)-N′-hydroxy-furan-3-carboximidamide]	–	–	> 10 µM
N#Cc1cc(NC(=NO)c2ccoc2)ccc1F [Example 12, N-(3-cyano-4-fluorophenyl)-N′-hydroxyfuran-3-carboximidamide]	–	–	> 10 µM
